Source: the NIST ThermoML archive (doi:10.1016/j.fluid.2017.09.014)

Test: xn = mol fraction of the nth substance listed
Conditions: Vibrating tube method, x2 = 0.9503

O=S=O [sulfur dioxide] + O=C=O
Conditions	mass density [kg/m3]
322.49 K, 26001 kPa, Fluid (supercritical or subcritical phases)	875.4
322.49 K, 26517 kPa, Fluid (supercritical or subcritical phases)	878.8
322.49 K, 27508 kPa, Fluid (supercritical or subcritical phases)	886.3
322.49 K, 28018 kPa, Fluid (supercritical or subcritical phases)	889.5
322.49 K, 29025 kPa, Fluid (supercritical or subcritical phases)	896.4
322.49 K, 29507 kPa, Fluid (supercritical or subcritical phases)	899.6
322.5 K, 17499 kPa, Fluid (supercritical or subcritical phases)	793.5
322.5 K, 18503 kPa, Fluid (supercritical or subcritical phases)	806.6
322.5 K, 19491 kPa, Fluid (supercritical or subcritical phases)	818.5
322.5 K, 24497 kPa, Fluid (supercritical or subcritical phases)	864.4
322.5 K, 25003 kPa, Fluid (supercritical or subcritical phases)	867.7
322.51 K, 11504 kPa, Fluid (supercritical or subcritical phases)	649.9
322.51 K, 12003 kPa, Fluid (supercritical or subcritical phases)	672.3
322.51 K, 16502 kPa, Fluid (supercritical or subcritical phases)	779.1
322.51 K, 17005 kPa, Fluid (supercritical or subcritical phases)	786.2
322.52 K, 14000 kPa, Fluid (supercritical or subcritical phases)	731.9
322.52 K, 14504 kPa, Fluid (supercritical or subcritical phases)	742.9
322.52 K, 15012 kPa, Fluid (supercritical or subcritical phases)	753.2
322.52 K, 15501 kPa, Fluid (supercritical or subcritical phases)	761.8
322.52 K, 16003 kPa, Fluid (supercritical or subcritical phases)	770.9
322.53 K, 12505 kPa, Fluid (supercritical or subcritical phases)	691.1
322.53 K, 13501 kPa, Fluid (supercritical or subcritical phases)	720.4
322.54 K, 13000 kPa, Fluid (supercritical or subcritical phases)	706.7
352.93 K, 202 kPa, Gas	3
352.93 K, 6001 kPa, Gas	114.8
352.94 K, 1742 kPa, Gas	28.6
352.94 K, 2504 kPa, Gas	41.8
352.94 K, 4003 kPa, Gas	70.6
352.94 K, 4493 kPa, Gas	80.5
352.94 K, 6516 kPa, Gas	127.7
352.94 K, 7017 kPa, Gas	140.9
352.94 K, 7498 kPa, Fluid (supercritical or subcritical phases)	154.1
352.94 K, 8038 kPa, Fluid (supercritical or subcritical phases)	170.3
352.94 K, 9008 kPa, Fluid (supercritical or subcritical phases)	201.9
352.95 K, 306 kPa, Gas	4.6
352.95 K, 402 kPa, Gas	6
352.95 K, 511 kPa, Gas	7.6
352.95 K, 740 kPa, Gas	11.4
352.95 K, 1507 kPa, Gas	24.3
352.95 K, 2002 kPa, Gas	33
352.95 K, 2248 kPa, Gas	37
352.95 K, 2800 kPa, Gas	47.2
352.95 K, 3009 kPa, Gas	51
352.95 K, 4997 kPa, Gas	91.5
352.95 K, 5490 kPa, Gas	102.6
352.95 K, 9230 kPa, Fluid (supercritical or subcritical phases)	209.5
352.95 K, 12000 kPa, Fluid (supercritical or subcritical phases)	321.9
352.95 K, 12505 kPa, Fluid (supercritical or subcritical phases)	346.8
352.95 K, 14502 kPa, Fluid (supercritical or subcritical phases)	447.3
352.95 K, 15497 kPa, Fluid (supercritical or subcritical phases)	493.2
352.95 K, 16515 kPa, Fluid (supercritical or subcritical phases)	535.1
352.95 K, 17520 kPa, Fluid (supercritical or subcritical phases)	569.4
352.95 K, 19511 kPa, Fluid (supercritical or subcritical phases)	624.5
352.95 K, 21993 kPa, Fluid (supercritical or subcritical phases)	677.2
352.95 K, 22493 kPa, Fluid (supercritical or subcritical phases)	686.4
352.95 K, 23011 kPa, Fluid (supercritical or subcritical phases)	694.8
352.95 K, 24538 kPa, Fluid (supercritical or subcritical phases)	717.4
352.95 K, 25002 kPa, Fluid (supercritical or subcritical phases)	723.7
352.95 K, 31494 kPa, Fluid (supercritical or subcritical phases)	793.2
352.96 K, 982 kPa, Gas	15.1
352.96 K, 1248 kPa, Gas	19.9
352.96 K, 3495 kPa, Gas	60.3
352.96 K, 8507 kPa, Fluid (supercritical or subcritical phases)	185.5
352.96 K, 10075 kPa, Fluid (supercritical or subcritical phases)	238.1
352.96 K, 11001 kPa, Fluid (supercritical or subcritical phases)	276.4
352.96 K, 12998 kPa, Fluid (supercritical or subcritical phases)	371.8
352.96 K, 13501 kPa, Fluid (supercritical or subcritical phases)	397.6
352.96 K, 14004 kPa, Fluid (supercritical or subcritical phases)	422.3
352.96 K, 15003 kPa, Fluid (supercritical or subcritical phases)	470.1
352.96 K, 16004 kPa, Fluid (supercritical or subcritical phases)	514.7
352.96 K, 17006 kPa, Fluid (supercritical or subcritical phases)	552.6
352.96 K, 19011 kPa, Fluid (supercritical or subcritical phases)	611.7
352.96 K, 20014 kPa, Fluid (supercritical or subcritical phases)	636.9
352.96 K, 20490 kPa, Fluid (supercritical or subcritical phases)	647.4
352.96 K, 20999 kPa, Fluid (supercritical or subcritical phases)	657.9
352.96 K, 21521 kPa, Fluid (supercritical or subcritical phases)	668.5
352.96 K, 23524 kPa, Fluid (supercritical or subcritical phases)	703.1
352.96 K, 24023 kPa, Fluid (supercritical or subcritical phases)	710.4
352.96 K, 25555 kPa, Fluid (supercritical or subcritical phases)	731.2
352.96 K, 26036 kPa, Fluid (supercritical or subcritical phases)	736.4
352.96 K, 27501 kPa, Fluid (supercritical or subcritical phases)	752.6
352.96 K, 28006 kPa, Fluid (supercritical or subcritical phases)	758.3
352.96 K, 28507 kPa, Fluid (supercritical or subcritical phases)	764.2
352.96 K, 29492 kPa, Fluid (supercritical or subcritical phases)	773.9
352.96 K, 29991 kPa, Fluid (supercritical or subcritical phases)	779
352.96 K, 31058 kPa, Fluid (supercritical or subcritical phases)	789.4
352.96 K, 31993 kPa, Fluid (supercritical or subcritical phases)	797.6
352.96 K, 33014 kPa, Fluid (supercritical or subcritical phases)	805.8
352.96 K, 33519 kPa, Fluid (supercritical or subcritical phases)	809.8
352.96 K, 36996 kPa, Fluid (supercritical or subcritical phases)	835.2
352.97 K, 10506 kPa, Fluid (supercritical or subcritical phases)	255.3
352.97 K, 11505 kPa, Fluid (supercritical or subcritical phases)	298.8
352.97 K, 18007 kPa, Fluid (supercritical or subcritical phases)	583.3
352.97 K, 18500 kPa, Fluid (supercritical or subcritical phases)	597.8
352.97 K, 26597 kPa, Fluid (supercritical or subcritical phases)	742.8
352.97 K, 29001 kPa, Fluid (supercritical or subcritical phases)	768.7
352.97 K, 30512 kPa, Fluid (supercritical or subcritical phases)	784.7
352.97 K, 32552 kPa, Fluid (supercritical or subcritical phases)	802.4
352.97 K, 34055 kPa, Fluid (supercritical or subcritical phases)	814.5
352.97 K, 35014 kPa, Fluid (supercritical or subcritical phases)	821.4
352.97 K, 35510 kPa, Fluid (supercritical or subcritical phases)	824.7
352.97 K, 36496 kPa, Fluid (supercritical or subcritical phases)	831.8
352.97 K, 37499 kPa, Fluid (supercritical or subcritical phases)	838.7
352.97 K, 38520 kPa, Fluid (supercritical or subcritical phases)	845.7
352.97 K, 39009 kPa, Fluid (supercritical or subcritical phases)	848.1
352.98 K, 27043 kPa, Fluid (supercritical or subcritical phases)	747.4
352.98 K, 34563 kPa, Fluid (supercritical or subcritical phases)	818.1
352.98 K, 36013 kPa, Fluid (supercritical or subcritical phases)	828.1
352.98 K, 38023 kPa, Fluid (supercritical or subcritical phases)	842.1
352.98 K, 39300 kPa, Fluid (supercritical or subcritical phases)	850.2
352.98 K, 39330 kPa, Fluid (supercritical or subcritical phases)	850.5
